This assay concerns OCI-LY10 cells. The assay can be described thus: Cell proliferation assay (MTS) in OCI-LY10 cells. The format is cell-based. The note with it: Homo sapiens; inhibition of OCI-LY10 cells proliferation, 72 h incubation, MTS, absorbance at 490 nm; read-out: OCI-LY10 IC50. An excerpt:
MTS testing kit was purchased from Promega (Madison, Wis., USA). The RPMI-1640, Fetal bovine serum and Penicillin-Streptomycin were purchased from BI (Biological Industries, Beit Haemek, Israel). Dimethyl sulfoxide (DMSO) was purchased from Sigma (St. Louis., Mo., USA). […] To investigate whether a compound is able to inhibit the activity of BTK in cells, a mechanism-based assay using OCI-LY10 cells was developed. In this assay, inhibition of BTK was detected by the inhibition of OCI-LY10 cells proliferation. Cells were plated into 96-well plates at a density of 10000 cells/well. Plates were incubated at 37° C., with 5% CO2 for 4 h. […] Plates were incubated at 37° C., with 5% CO2 for 72 h. 20 μl MTS was added into each well and the plates were incubated at 37° C., with 5% CO2 for exactly 2 h. The absorbance was measured by a microplate reader at 490 nm. IC50 was calculated using GraphPad Prism 5.0 software. Select compounds prepared as described above were assayed according to the biological procedures described herein.
By IC50 is commonly meant the concentration at which inhibition is half-maximal. As for `COc1ccc(F)cc1C(=O)NCc1ccc(-c2nn([C@H]3CCC[C@@H]3F)c3c(=O)[nH]nc(N)c23)cc1` [Example 80, N-(4-(4-amino-1-((1S,2S)-2-fluorocyclopentyl)-7-oxo-6,7-dihydro-1H-pyrazolo[3,4-d]pyridazin-3-yl)benzyl)-5-fluoro-2-methoxybenzamide], the IC50 came out at 1 nM.

For `COc1ccc(F)cc1C(=O)NCc1ccc(-c2nn(C3(CF)CC3)c3c(=O)[nH]nc(N)c23)cc1` [Example 82, N-(4-(4-amino-1-(1-(fluoromethyl)cyclopropyl)-7-oxo-6,7-dihydro-1H-pyrazolo[3,4-d]pyridazin-3-yl)benzyl)-5-fluoro-2-methoxybenzamide], the IC50 was 3 nM.

On to `COc1ccc(F)cc1C(=O)NCc1ccc(-c2nn(C(C)(C)CF)c3c(=O)[nH]nc(N)c23)cc1` [Example 83, N-(4-(4-amino-1-(1-fluoro-2-methylpropan-2-yl)-7-oxo-6,7-dihydro-1H-pyrazolo[3,4-d]pyridazin-3-yl)benzyl)-5-fluoro-2-methoxybenzamide], for which the IC50 was determined as 46 nM.

In the case of `COc1ccc(F)cc1C(=O)NCc1ccc(-c2nn(C3(C(F)F)CC3)c3c(=O)[nH]nc(N)c23)cc1` [Example 84, N-(4-(4-amino-1-(1-(difluoromethyl)cyclopropyl)-7-oxo-6,7-dihydro-1H-pyrazolo[3,4-d]pyridazin-3-yl)benzyl)-5-fluoro-2-methoxybenzamide], the IC50 was determined as 4 nM.

As for `COc1ccc(F)cc1C(=O)NCc1ccc(-c2nn(C(C)(C)C(F)F)c3c(=O)[nH]nc(N)c23)cc1` [Example 85, N-(4-(4-amino-1-(1,1-difluoro-2-methylpropan-2-yl)-7-oxo-6,7-dihydro-1H-pyrazolo[3,4-d]pyridazin-3-yl)benzyl)-5-fluoro-2-methoxybenzamide], the IC50 came to 18 nM.

`COc1ccc(F)cc1C(=O)NCc1ccc(-n2nc(C3CCCO3)c3c(=O)[nH]nc(N)c32)cc1` (centres unmarked) [Example 86, N-(4-(7-amino-4-oxo-3-(tetrahydrofuran-2-yl)-4,5-dihydro-1H-pyrazolo[3,4-d]pyridazin-1-yl)benzyl)-5-fluoro-2-methoxybenzamide]: the concentration for half-maximal inhibition (IC50) was determined as 90 nM.

As to `COc1ccc(F)cc1C(=O)NCc1ccc(-c2nn(C3(C(F)(F)F)CC3)c3c(=O)[nH]nc(N)c23)cc1` [Example 87, N-(4-(4-amino-7-oxo-1-(1-(trifluoromethyl)cyclopropyl)-6,7-dihydro-1H-pyrazolo [3,4-d]pyridazin-3-yl)benzyl)-5-fluoro-2-methoxybenzamide], the IC50 came to 4 nM.

`COc1ccc(F)cc1C(=O)NCc1ccc(-c2nn([C@@H](CF)C3CC3)c3c(=O)[nH]nc(N)c23)cc1` [Example 88, (R)-N-(4-(4-amino-1-(1-cyclopropyl-2-fluoroethyl)-7-oxo-6,7-dihydro-1H-pyrazolo[3,4-d]pyridazin-3-yl)benzyl)-5-fluoro-2-methoxybenzamide]: the IC50 turned out to be 1 nM.

In the case of `COc1ccc(F)cc1C(=O)NCc1ccc(-c2nn([C@@H](C(F)F)C3CC3)c3c(=O)[nH]nc(N)c23)cc1` [Example 89, (R)-N-(4-(4-amino-1-(1-cyclopropyl-2,2-difluoroethyl)-7-oxo-6,7-dihydro-1H-pyrazolo[3,4-d]pyridazin-3-yl)benzyl)-5-fluoro-2-methoxybenzamide], the IC50 came out at 1 nM.

Take `COc1ccc(F)cc1C(=O)NCc1ccc(-n2nc(C3CCCC3(F)F)c3c(=O)[nH]nc(N)c32)cc1` (centres unmarked) [Example 90, N-(4-(7-amino-3-(2,2-difluorocyclopentyl)-4-oxo-4,5-dihydro-1H-pyrazolo [3,4-d]pyridazin-1-yl)benzyl)-5-fluoro-2-methoxybenzamide]: the IC50 turned out to be 15 nM.

In the case of `CCC(C)c1nn(-c2ccc(CNC(=O)c3cc(F)ccc3OC)cc2)c2c(N)n[nH]c(=O)c12` (centres unmarked) [Example 92a, N-(4-(7-amino-3-(sec-butyl)-4-oxo-4,5-dihydro-1H-pyrazolo[3,4-d]pyridazin-1-yl)benzyl)-5-fluoro-2-methoxybenzamide], the IC50 is 10 nM.

For the molecule `CC[C@@H](C)c1nn(-c2ccc(CNC(=O)c3cc(F)ccc3OC)cc2)c2c(N)n[nH]c(=O)c12` [Example 92b, (R)-N-(4-(7-amino-3-(sec-butyl)-4-oxo-4,5-dihydro-1H-pyrazolo[3,4-d]pyridazin-1-yl)benzyl)-5-fluoro-2-methoxybenzamide], the IC50 worked out at 22 nM.

Consider `COc1ccc(F)cc1C(=O)NCc1ccc(-n2nc(CC3CC3)c3c(=O)[nH]nc(N)c32)cc1` [Example 93, N-(4-(7-amino-3-(cyclopropylmethyl)-4-oxo-4,5-dihydro-1H-pyrazolo[3,4-d]pyridazin-1-yl)benzyl)-5-fluoro-2-methoxybenzamide], for which the IC50 amounted to 24 nM.

On to `COc1ccc(F)cc1C(=O)NCc1ccc(-n2nc(C(C)(C)C)c3c(=O)[nH]nc(N)c32)cc1` [Example 94, N-(4-(7-amino-3-(tert-butyl)-4-oxo-4,5-dihydro-1H-pyrazolo[3,4-d]pyridazin-1-yl)benzyl)-5-fluoro-2-methoxybenzamide], for which the IC50 came out at 1 nM.

Take `COc1ccc(F)cc1C(=O)NCc1ccc(-n2nc(C(C)C3CC3)c3c(=O)[nH]nc(N)c32)cc1` (centres unmarked) [Example 96, N-(4-(7-amino-3-(1-cyclopropylethyl)-4-oxo-4,5-dihydro-1H-pyrazolo[3,4-d]pyridazin-1-yl)benzyl)-5-fluoro-2-methoxybenzamide]: the IC50 came to 1 nM.

With `COc1ccc(F)cc1C(=O)NCc1ccc(-n2nc(C3CC(F)(F)C3)c3c(=O)[nH]nc(N)c32)cc1` [Example 97, N-(4-(7-amino-3-(3,3-difluorocyclobutyl)-4-oxo-4,5-dihydro-1H-pyrazolo[3,4-d]pyridazin-1-yl)benzyl)-5-fluoro-2-methoxybenzamide], the IC50 was 23 nM.

For `COc1ccc(F)cc1C(=O)NCc1ccc(-n2nc(C3(F)CC3)c3c(=O)[nH]nc(N)c32)cc1` [Example 98, N-(4-(7-amino-3-(1-fluorocyclopropyl)-4-oxo-4,5-dihydro-1H-pyrazolo[3,4-d]pyridazin-1-yl)benzyl)-5-fluoro-2-methoxybenzamide], the IC50 stood at 92 nM.

For the molecule `COc1ccc(F)cc1C(=O)NCc1ccc(-n2nc(C3CC3(F)F)c3c(=O)[nH]nc(N)c32)cc1` (centres unmarked) [Example 99, N-(4-(7-amino-3-(2,2-difluorocyclopropyl)-4-oxo-4,5-dihydro-1H-pyrazolo[3,4-d]pyridazin-1-yl)benzyl)-5-fluoro-2-methoxybenzamide], the 50% inhibitory concentration (IC50) was determined as 65 nM.

For the molecule `COc1ccc(F)cc1C(=O)NCc1ccc(-n2c(=O)n(C3CCC3)c3c(=O)[nH]nc(N)c32)cc1` [Example 102, N-(4-(7-amino-3-cyclobutyl-2,4-dioxo-2,3,4,5-tetrahydro-1H-imidazo[4,5-d]pyridazin-1-yl)benzyl)-5-fluoro-2-methoxybenzamide], the IC50 is 76 nM.

`COc1ccc(F)cc1C(=O)NCc1ccc(-c2cn([C@@H]3CCN(C(=O)OC(C)C)C3)c3c(=O)[nH]nc(N)c23)cc1` [Example 105, isopropyl (R)-3-(4-amino-3-(4-((5-fluoro-2-methoxybenzamido)methyl)phenyl)-7-oxo-6,7-dihydro-1H-pyrrolo[2,3-d]pyridazin-1-yl)pyrrolidine-1-carboxylate]: the IC50 stood at 4 nM.

The values above are taken from patent US20230145305A1, “COMPOUNDS USEFUL AS KINASE INHIBITORS” (Fochon Biosciences, Ltd., priority 2020, published 2023).
